Experimental data as given in patent US20100105655A1, “NOVEL COMPOUNDS 515” (ASTRAZENECA AB, priority 2008, published 2010).

Biological target: T1, IGFR kinase (Homo sapiens, UniProt P08069)
T1 construct: purchased Millipore
Assay: Enzyme assay (c), IGFR kinase, Caliper LabChip
Type: biochemical
Settings: 30 nM IGFR kinase, 6 uM ATP, 3 uM peptide mix; read-out: IGFR IC50

T1 sequence (P08069 31-1367): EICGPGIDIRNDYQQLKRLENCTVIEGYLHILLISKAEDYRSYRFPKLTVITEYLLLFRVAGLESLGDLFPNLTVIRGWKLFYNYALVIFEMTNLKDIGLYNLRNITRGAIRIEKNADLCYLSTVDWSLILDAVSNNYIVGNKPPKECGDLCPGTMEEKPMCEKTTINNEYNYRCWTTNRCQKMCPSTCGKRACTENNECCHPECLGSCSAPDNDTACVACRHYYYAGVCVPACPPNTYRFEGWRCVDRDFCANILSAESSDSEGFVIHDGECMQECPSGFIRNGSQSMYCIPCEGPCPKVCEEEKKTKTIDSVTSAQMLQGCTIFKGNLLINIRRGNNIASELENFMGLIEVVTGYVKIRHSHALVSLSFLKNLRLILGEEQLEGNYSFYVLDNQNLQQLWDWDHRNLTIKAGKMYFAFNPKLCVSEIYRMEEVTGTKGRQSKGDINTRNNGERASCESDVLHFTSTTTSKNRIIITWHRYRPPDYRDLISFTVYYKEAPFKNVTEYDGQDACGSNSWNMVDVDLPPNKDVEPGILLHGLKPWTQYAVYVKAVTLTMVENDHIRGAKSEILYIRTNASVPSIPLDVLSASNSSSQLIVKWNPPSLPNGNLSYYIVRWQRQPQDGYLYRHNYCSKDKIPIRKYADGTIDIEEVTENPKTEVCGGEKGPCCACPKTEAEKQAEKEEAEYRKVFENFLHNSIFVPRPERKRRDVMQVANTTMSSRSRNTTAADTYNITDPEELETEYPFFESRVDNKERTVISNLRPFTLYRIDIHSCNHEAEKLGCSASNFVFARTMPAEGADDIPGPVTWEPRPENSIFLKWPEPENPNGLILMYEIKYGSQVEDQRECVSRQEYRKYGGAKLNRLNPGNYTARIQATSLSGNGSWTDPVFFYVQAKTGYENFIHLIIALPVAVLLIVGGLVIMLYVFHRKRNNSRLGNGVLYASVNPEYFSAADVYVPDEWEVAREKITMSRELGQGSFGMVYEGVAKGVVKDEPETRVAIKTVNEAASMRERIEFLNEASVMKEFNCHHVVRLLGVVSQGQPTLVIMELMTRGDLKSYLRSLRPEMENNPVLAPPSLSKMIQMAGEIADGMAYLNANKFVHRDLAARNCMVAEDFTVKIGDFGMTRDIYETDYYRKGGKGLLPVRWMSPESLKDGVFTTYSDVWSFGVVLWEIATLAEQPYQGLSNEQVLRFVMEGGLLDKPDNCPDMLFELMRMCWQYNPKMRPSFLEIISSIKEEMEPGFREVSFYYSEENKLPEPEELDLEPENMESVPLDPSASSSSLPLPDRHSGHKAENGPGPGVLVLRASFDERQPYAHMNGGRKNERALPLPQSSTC

Row | Compound | IC50 [nM]
1 | COc1cc(N2CCN(C(C)(C)CO)CC2)ccc1Nc1ncc(F)c(-c2cnc3ccccn23)n1 [Example 228, 2-[4-[4-[(5-fluoro-4-imidazo[1,2-a]pyridin-3-yl-pyrimidin-2-yl)amino]-3-methoxy-phenyl]piperazin-1-yl]-2-methyl-propan-1-ol] | 24
2 | COc1cc(N2CCN(C(C)(C)CO)CC2)ccc1Nc1ncc(C)c(-c2cnc3ccccn23)n1 [Example 229, 2-[4-[4-[(4-imidazo[1,2-a]pyridin-3-yl-5-methyl-pyrimidin-2-yl)amino]-3-methoxy-phenyl]piperazin-1-yl]-2-methyl-propan-1-ol] | 20
3 | COc1cc(N2CCN(C(C)(C)CO)CC2)ccc1Nc1ncc(Cl)c(-c2cnn3ccccc23)n1 [Example 230, 2-[4-[4-[(5-chloro-4-pyrazolo[1,5-a]pyridin-3-yl-pyrimidin-2-yl)amino]-3-methoxy-phenyl]piperazin-1-yl]-2-methyl-propan-1-ol] | 5
4 | COc1cc(N2CCN(C(C)(C)CO)CC2)ccc1Nc1ncc(C)c(-c2cnn3ccccc23)n1 [Example 231, 2-[4-[3-methoxy-4-[(5-methyl-4-pyrazolo[1,5-a]pyridin-3-yl-pyrimidin-2-yl)amino]phenyl]piperazin-1-yl]-2-methyl-propan-1-ol] | 20
5 | COc1cc(N2CC3CN(CCO)CC(C2)O3)ccc1Nc1ncc(C)c(-c2cnc3ccccn23)n1 [Example 232, 2-[7-[4-[(4-imidazo[1,2-a]pyridin-3-yl-5-methyl-pyrimidin-2-yl)amino]-3-methoxy-phenyl]-9-oxa-3,7-diazabicyclo[3.3.1]nonan-3-yl]ethanol] | 23
6 | COc1cc(C2CCN(C(C)=O)CC2)ccc1Nc1ncc(C)c(-c2cnn3ccccc23)n1 [Example 233, 1-[4-[3-methoxy-4-[(5-methyl-4-pyrazolo[1,5-a]pyridin-3-yl-pyrimidin-2-yl)amino]phenyl]-1-piperidyl]ethanone] | 9
7 | COc1cc(N2CCN(C(C)=O)CC2)ccc1Nc1ncc(C2CC2)c(-c2cnn3ccccc23)n1 [Example 234, 1-[4-[4-[(5-cyclopropyl-4-pyrazolo[1,5-a]pyridin-3-yl-pyrimidin-2-yl)amino]-3-methoxy-phenyl]piperazin-1-yl]ethanone] | 31
8 | COc1cc(N2CCN(C(=O)[C@@H](C)N)CC2)ccc1Nc1ncc(C)c(-c2cnn3ccccc23)n1 [Example 235, (2R)-2-amino-1-[4-[3-methoxy-4-[(5-methyl-4-pyrazolo[1,5-a]pyridin-3-yl-pyrimidin-2-yl)amino]phenyl]piperazin-1-yl]propan-1-one] | 13
9 | COc1ccc(N2CCN(C(=O)CN(C)C)CC2)cc1Nc1ncc(C)c(-c2cnn3ccccc23)n1 [Example 236, 2-(dimethylamino)-1-[4-[4-methoxy-3-[(5-methyl-4-pyrazolo[1,5-a]pyridin-3-yl-pyrimidin-2-yl)amino]phenyl]piperazin-1-yl]ethanone] | 49
10 | CNCC(=O)N1CCC(c2ccc(Nc3ncc(C)c(-c4cnn5ccccc45)n3)c(OC)c2)CC1 [Example 237, 1-[4-[3-methoxy-4-[(5-methyl-4-pyrazolo[1,5-a]pyridin-3-yl-pyrimidin-2-yl)amino]phenyl]-1-piperidyl]-2-(methylamino)ethanone] | 8
11 | CNCC(=O)N1CCC(c2ccc(Nc3ncc(F)c(-c4cnn5ccccc45)n3)c(OC)c2)CC1 [Example 238, 1-[4-[4-[(5-fluoro-4-pyrazolo[1,5-a]pyridin-3-yl-pyrimidin-2-yl)amino]-3-methoxy-phenyl]-1-piperidyl]-2-(methylamino)ethanone] | 8
12 | COc1cc(C2CCN(C(C)=O)CC2)ccc1Nc1ncc(C#N)c(-c2cnn3ccccc23)n1 [Example 239, 2-[4-(1-acetyl-4-piperidyl)-2-methoxy-anilino]-4-pyrazolo[1,5-a]pyridin-3-yl-pyrimidine-5-carbonitrile] | 110
